{"source": "patent US20160318957A1", "about": "“CRYSTAL (1) OF PYRAZINO[2,1-c][1,2,4]TRIAZINE COMPOUND” (PRISM PHARMA CO., LTD., priority 2013, published 2016)", "format_in_all_cases": "physicochemical", "key": {"[1]": {"assay": "Evaluation of solid stability (impurity content by HPLC after preservation)", "settings": "for impurity content (%): HPLC 226 nm", "experimental": "The solid obtained in Example 1 or Comparative Example 1 was preserved for 3 months under the following 3 kinds of preservation conditions. The absorbance at wavelength 226 nm was measured by high performance liquid chromatography (HPLC), and the content of impurity contained in the crystal was measured every other month.\nFrom the peak area of the obtained chromatogram, a value obtained by dividing the total area of respective peaks other than the peak showing compound 1, by the total area of all the obtained peaks, from the peaks contained in the above-mentioned solid, was taken as impurity content (%), and is shown in Table 5."}, "[2]": {"assay": "Hygroscopicity evaluation by dynamic water adsorption measuring apparatus", "settings": "25° C., relative humidity range of 35-75% RH", "experimental": "The hygroscopicity of crystal A obtained in Example 1 was evaluated by a dynamic water adsorption measuring apparatus. A sample mounting part of the apparatus was maintained at 25° C., and the relative humidity (RH) was set stepwisely within the range of 5-95% RH. The humidity was controlled by changing the relative flow of 0% RH dry nitrogen and 100% RH humidified nitrogen. The sample weight was confirmed at for 2 min intervals by a micro balance, and the humidity was sequentially changed at the time point when the weight shift range for 5 min was below 0.01%."}, "[3]": {"assay": "Evaluation of thermal stability by X-ray-DSC", "experimental": "Using X-ray diffraction-differential scanning simultaneous calorimetry apparatus (X-ray-DSC), whether the crystal form of crystal A obtained in Example 1 changes upon heating was observed.\nWhen the temperature was around 90° C., the weight of crystal A decreased, and the powder X-ray diffraction pattern changed clearly."}, "[4]": {"assay": "Heating of crystal in an oven", "settings": "oven at 50° C. overnight", "from_the_text": "First, an amorphous form of compound 1 is explained. Compound 1 can be produced by synthesize according to the method described in patent document 1."}, "[5]": {"settings": "preserved at 40° C./75% RH, 1 month later"}, "[6]": {"settings": "preserved at 40° C./75% RH, 2 months later"}, "[7]": {"settings": "preserved at 40° C./75% RH, 3 months later"}, "[8]": {"settings": "preserved at 60° C., 1 month later"}, "[9]": {"settings": "preserved at 60° C., 2 months later"}, "[10]": {"settings": "preserved at 60° C., 3 months later"}, "[11]": {"settings": "preserved at −20° C., 1 month later"}, "[12]": {"settings": "preserved at −20° C., 2 months later"}, "[13]": {"settings": "preserved at −20° C., 3 months later"}, "[14]": {"settings": "heated from 40° C. to 100° C. at 1° C./min"}}}
{"smiles": "C[C@H]1C2N(C(=O)CN(C)N2C(=O)NCc2ccccc2)[C@@H](Cc2ccc(OP(=O)(O)O)cc2)C(=O)N1Cc1cccc2cccnc12", "note": "(stereo partly drawn) [Comparative Example 1, 4-(((6S,9S)-1-(benzylcarbamoyl)-2,9-dimethyl-4,7-dioxo-8-(quinolin-8-ylmethyl)octahydro-1H-pyrazino[2,1-c][1,2,4]triazin-6-yl)methyl)phenyl dihydrogen phosphate]", "values": [{"measurement": "increase in the impurity content as compared to preservation at −20° C.", "setting": "[1]; 40° C., 75% RH, 3 months later", "result": "about 4%"}, {"measurement": "increase in the impurity content as compared to preservation at −20° C.", "setting": "[1]; 60° C., 3 months later", "result": "not less than 1.1%"}, {"measurement": "impurity content (%)", "setting": "[1]; [5]", "result": 3.35, "unit": "%"}, {"measurement": "impurity content (%)", "setting": "[1]; [6]", "result": 4.62, "unit": "%"}, {"measurement": "impurity content (%)", "setting": "[1]; [7]", "result": 6.51, "unit": "%"}, {"measurement": "impurity content (%)", "setting": "[1]; [8]", "result": 3.10, "unit": "%"}, {"measurement": "impurity content (%)", "setting": "[1]; [9]", "result": 3.41, "unit": "%"}, {"measurement": "impurity content (%)", "setting": "[1]; [10]", "result": 3.68, "unit": "%"}, {"measurement": "impurity content (%)", "setting": "[1]; [11]", "result": 2.46, "unit": "%"}, {"measurement": "impurity content (%)", "setting": "[1]; [12]", "result": 2.60, "unit": "%"}, {"measurement": "impurity content (%)", "setting": "[1]; [13]", "result": 2.57, "unit": "%"}]}
{"smiles": "C[C@H]1C2N(C(=O)CN(C)N2C(=O)NCc2ccccc2)[C@@H](Cc2ccc(OP(=O)(O)O)cc2)C(=O)N1Cc1cccc2cccnc12", "note": "(stereo partly drawn) [Example 1, 4-(((6S,9S)-1-(benzylcarbamoyl)-2,9-dimethyl-4,7-dioxo-8-(quinolin-8-ylmethyl)octahydro-1H-pyrazino[2,1-c][1,2,4]triazin-6-yl)methyl)phenyl dihydrogen phosphate]", "values": [{"measurement": "hygroscopicity", "setting": "[2]", "result": "low hygroscopicity"}, {"measurement": "weight change at the maximum", "setting": "[2]", "result": "about 2.5%"}, {"measurement": "powder X-ray diffraction pattern at the endothermic peak (desorption of hydrated water)", "setting": "[3]; 43° C.-48° C., heated at 1° C./min", "result": "did not change"}, {"measurement": "temperature at which weight decreased and powder X-ray diffraction pattern changed clearly", "setting": "[3]; [14]", "result": "around 90 °C"}, {"measurement": "thermal stability", "setting": "[3]; [14]", "result": "thermally stable"}, {"measurement": "increase in the impurity content as compared to preservation at −20° C.", "setting": "[1]; 40° C., 75% RH, 3 months later", "result": "about 1.6%"}, {"measurement": "increase in the impurity content as compared to preservation at −20° C.", "setting": "[1]; 60° C., 3 months later", "result": "not more than 0.5%"}, {"measurement": "solid stability compared with amorphous form", "setting": "[1]; high temperature conditions and high humidity conditions, 3 months", "result": "more stable than the amorphous form of Comparative Example 1"}, {"measurement": "impurity content (%)", "setting": "[1]; [5]", "result": 0.65, "unit": "%"}, {"measurement": "impurity content (%)", "setting": "[1]; [6]", "result": 1.02, "unit": "%"}, {"measurement": "impurity content (%)", "setting": "[1]; [7]", "result": 1.80, "unit": "%"}, {"measurement": "impurity content (%)", "setting": "[1]; [8]", "result": 0.53, "unit": "%"}, {"measurement": "impurity content (%)", "setting": "[1]; [9]", "result": 0.59, "unit": "%"}, {"measurement": "impurity content (%)", "setting": "[1]; [10]", "result": 0.72, "unit": "%"}, {"measurement": "impurity content (%)", "setting": "[1]; [11]", "result": 0.24, "unit": "%"}, {"measurement": "impurity content (%)", "setting": "[1]; [12]", "result": 0.17, "unit": "%"}, {"measurement": "impurity content (%)", "setting": "[1]; [13]", "result": 0.24, "unit": "%"}]}
{"smiles": "C[C@H]1C2N(C(=O)CN(C)N2C(=O)NCc2ccccc2)[C@@H](Cc2ccc(OP(=O)(O)O)cc2)C(=O)N1Cc1cccc2cccnc12", "note": "(stereo partly drawn) [Example 2, 4-(((6S,9S)-1-(benzylcarbamoyl)-2,9-dimethyl-4,7-dioxo-8-(quinolin-8-ylmethyl)octahydro-1H-pyrazino[2,1-c][1,2,4]triazin-6-yl)methyl)phenyl dihydrogen phosphate]", "values": [{"measurement": "change of solid form on heating", "setting": "[4]", "result": "changes into an amorphous form"}]}
